This is an account of results in ChEMBL document CHEMBL3102756, “Synthesis and biological evaluation of a series of aminoalkyl-tetralones and tetralols as dual dopamine/serotonin ligands” (Eur J Med Chem, 2014).

The target of assay [1] is D(2) dopamine receptor (Homo sapiens) (UniProt P14416). The settings on record: CHO.
Description: Competitive antagonist activity at human D2 receptor expressed in CHO cells assessed as inhibition of cAMP release after 30 mins by HTRF assay
In assay [2] the target is T1, 5-hydroxytryptamine receptor 2A (Homo sapiens, UniProt P28223). Kind of assay: Displacement of [3H]ketanserin from human 5-HT2A receptor. (Displacement assays read how much labelled ligand stays bound in the presence of the test substance.)
T1 sequence (P28223 whole entry): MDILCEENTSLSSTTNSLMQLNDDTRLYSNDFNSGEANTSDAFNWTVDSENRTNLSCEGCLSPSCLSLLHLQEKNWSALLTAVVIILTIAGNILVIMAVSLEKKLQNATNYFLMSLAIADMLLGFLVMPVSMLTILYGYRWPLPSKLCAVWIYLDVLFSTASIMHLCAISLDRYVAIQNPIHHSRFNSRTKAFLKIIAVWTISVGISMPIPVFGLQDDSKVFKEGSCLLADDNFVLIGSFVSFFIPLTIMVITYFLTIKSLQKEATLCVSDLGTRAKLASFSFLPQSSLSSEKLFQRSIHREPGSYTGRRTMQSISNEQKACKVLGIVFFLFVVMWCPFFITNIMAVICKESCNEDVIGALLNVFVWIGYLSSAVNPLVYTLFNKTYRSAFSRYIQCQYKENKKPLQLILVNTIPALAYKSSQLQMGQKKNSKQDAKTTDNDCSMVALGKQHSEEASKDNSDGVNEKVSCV
Assay [3] concerns the target T1, 5-hydroxytryptamine receptor 2A. The settings on record: CHO.
Description: Competitive antagonist activity at human 5-HT2A receptor expressed in CHO cells assessed as inhibition of inositol phosphate release after 30 mins by HTRF assay
For assay [4] the target is unchanged. Kind of assay: Binding affinity for 5-HT2A receptor (unknown origin).

D(2) dopamine receptor (Homo sapiens), sequence (P14416 whole entry): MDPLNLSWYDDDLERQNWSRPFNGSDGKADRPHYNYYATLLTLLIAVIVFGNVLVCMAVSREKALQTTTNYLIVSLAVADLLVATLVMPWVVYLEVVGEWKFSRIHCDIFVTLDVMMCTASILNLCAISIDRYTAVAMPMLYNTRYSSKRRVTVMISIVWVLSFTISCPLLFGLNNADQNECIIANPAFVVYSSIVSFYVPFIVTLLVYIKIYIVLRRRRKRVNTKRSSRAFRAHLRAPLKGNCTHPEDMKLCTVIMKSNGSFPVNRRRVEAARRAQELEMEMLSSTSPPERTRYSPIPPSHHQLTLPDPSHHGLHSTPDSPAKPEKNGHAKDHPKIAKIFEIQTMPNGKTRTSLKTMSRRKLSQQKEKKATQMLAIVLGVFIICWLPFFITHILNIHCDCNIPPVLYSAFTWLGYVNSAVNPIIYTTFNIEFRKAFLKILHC

On to `Nc1ccc2c(c1)C(O)C(CCN1CCC(C(=O)c3ccc(F)cc3O)CC1)CC2` (stereo unspecified), for which the pKb in assay [1] came out at 6.32; in assay [3] it was 7.82. The compound also showed a Ki in assay [2] of 0.00447 µM.

Consider `O=C1CC(CN2CCC(c3noc4cc(F)ccc34)CC2)Cc2ccccc21` (stereo unspecified), for which, in assay [4], the affinity corresponds to a Ki of 0.00275 µM. That is a single-digit nanomolar value.

In assay [2], `Nc1ccc2c(c1)C(=O)C(CCN1CCC(C(=O)c3ccc(F)cc3O)CC1)CC2` (stereo unspecified) gave a Ki of 0.0234 µM. This lies in the double-digit nanomolar range.

As for `COc1ccccc1N1CCN(CCC2CCc3ccc([N+](=O)[O-])cc3C2O)CC1` (stereo unspecified), the Ki in assay [2] was 0.513 µM.

In the case of `COc1ccccc1N1CCN(CCC2CCc3ccc(N)cc3C2=O)CC1` (stereo unspecified), the Ki in assay [2] is 0.0427 µM. Compared with the last compound, the Ki is about 12-fold lower.

`CC(=O)c1ccc2c(c1)CC(CN1CCC(C(=O)c3ccc(F)cc3)CC1)CC2=O` (stereo unspecified) showed a Ki in assay [2] of 0.0631 µM.

As to `O=C1CC(CN2CCC(c3noc4cc(F)ccc34)CC2)Cc2cc(-c3ccccc3)ccc21` (stereo unspecified), the pKb came to 7.55 in assay [1] and 7.84 in assay [3]. For the same compound, affinity in assay [2] was put at a Ki of 0.0158 µM.

On to `Nc1ccc2c(c1)C(=O)C(CCN1CCC(c3noc4cc(F)ccc34)CC1)CC2` (stereo unspecified), for which the pKb in assay [1] is 7.53; in assay [3] it was 8.76. This compound showed a Ki in assay [2] of 0.00501 µM.

Consider `COc1ccccc1N1CCN(CCC2CCc3ccc([N+](=O)[O-])cc3C2=O)CC1` (stereo unspecified), for which, in assay [2], the Ki is 0.794 µM.

The compound `O=[N+]([O-])c1ccc2c(c1)C(O)C(CCN1CCC(c3noc4cc(F)ccc34)CC1)CC2` (stereo unspecified) gave a Ki in assay [2] of 0.011 µM. Against the preceding compound, the Ki is about 72-fold lower.

For the compound `COc1ccccc1N1CCN(CCC2CCc3ccc(N)cc3C2O)CC1` (stereo unspecified), the affinity in assay [2], expressed as Ki, was 0.158 µM. Compared with the last compound, the Ki is about 14-fold higher.

Compound `O=C1CC(CN2CCC(C(=O)c3ccc(F)cc3)CC2)Cc2cc(-c3ccccc3)ccc21` (stereo unspecified) showed a Ki in assay [2] of 0.631 µM.

In assay [2], `O=C1c2cc([N+](=O)[O-])ccc2CCC1CCN1CCC(c2noc3cc(F)ccc23)CC1` (stereo unspecified) gave a Ki of 0.0191 µM.

Take `Nc1ccc2c(c1)C(O)C(CCN1CCC(c3noc4cc(F)ccc34)CC1)CC2` (stereo unspecified): in assay [2], the Ki was 0.00661 µM.

As to `CC(=O)c1ccc2c(c1)CC(CN1CCC(c3noc4cc(F)ccc34)CC1)CC2=O` (stereo unspecified), affinity in assay [2] was put at a Ki of 0.0316 µM.

The term pKb denotes the Kb on a negative log10 scale, so that one unit is a factor of ten. The low end stands for a large Kb, the high end for a small Kb. As usually defined, the Ki is the equilibrium dissociation constant of an inhibitor or competing ligand from its target. Read a low Ki as a stronger hold on the target.
